Assay results as given in the CheMixHub ionic liquid set.

Experiment: xn = mol fraction of the nth substance listed
Conditions: 101.3 kPa

CCCCn1cc[n+](C)c1C.O=S(=O)([N-]S(=O)(=O)C(F)(F)F)C(F)(F)F + COC(=O)OC
viscosity [mPa·s]
Conditions	288.15 K	293.15 K	298.15 K	303.15 K	308.15 K	313.15 K
x1 = 0.003134	0.698	0.653	0.611	0.575	0.541	0.511
x1 = 0.003617	0.704	0.658	0.615	0.579	0.544	0.513
x1 = 0.004671	0.717	0.669	0.626	0.588	0.553	0.522
x1 = 0.005144	0.722	0.674	0.63	0.592	0.557	0.525
x1 = 0.007528	0.753	0.701	0.655	0.614	0.578	0.544
x1 = 0.008467	0.763	0.711	0.664	0.622	0.585	0.551
x1 = 0.01016	0.786	0.731	0.682	0.639	0.6	0.564
x1 = 0.01046	0.789	0.734	0.685	0.641	0.602	0.566
x1 = 0.01168	0.805	0.748	0.697	0.653	0.612	0.577
x1 = 0.01411	0.833	0.773	0.721	0.674	0.632	0.597
x1 = 0.01541	0.85	0.788	0.734	0.685	0.643	0.604
x1 = 0.01579	0.854	0.791	0.738	0.688	0.645	0.606
x1 = 0.01626	0.86	0.798	0.743	0.693	0.651	0.61
x1 = 0.01704	0.87	0.807	0.751	0.7	0.657	0.616
x1 = 0.01948	0.898	0.832	0.773	0.722	0.675	0.634
x1 = 0.01969	0.901	0.834	0.775	0.723	0.677	0.635
x1 = 0.02378	0.947	0.876	0.813	0.758	0.709	0.665
x1 = 0.02412	0.949	0.878	0.816	0.76	0.711	0.667
x1 = 0.02675	0.977	0.903	0.838	0.781	0.731	0.684
x1 = 0.02717	0.98	0.907	0.842	0.784	0.734	0.688
x1 = 0.03309	1.044	0.964	0.894	0.833	0.778	0.729
x1 = 0.03594	1.073	0.99	0.918	0.855	0.798	0.748
x1 = 0.03715	1.086	1.002	0.929	0.864	0.807	0.756
x1 = 0.0405	1.117	1.031	0.957	0.89	0.83	0.777
x1 = 0.04889	1.211	1.117	1.034	0.96	0.895	0.837
